Experimental data reported in patent US20150093333A1, “COMPOSITIONS, METHODS AND USES FOR PEPTIDES IN DIAGNOSIS, PROGRESSION AND TREATMENT OF CANCERS” (THE REGENTS OF THE UNIVERSITY OF COLORADO, body corporate, priority 2003, published 2015).

Key:
[1] = system: PS-exposing cell membranes; assay: Fluorescence staining of PS-exposing membranes in dissected gonads of C. elegans; type: in vivo; conditions: wild type (N2), tat-1(tm3117) and ced-7(n2094) animals
Procedure: Fluorescence staining assays were carried out in an acceptible C. elegans model with PS-exposing cell membranes. […] NBD-MARCKS-ED was used to stain the dissected gonads of wild type (N2) animals, tat-1(tm3117) mutant animals, and engulfment-deficient ced-7 (n2094) mutant animals, respectively. 36 hour old hermaphrodite adult animals were collected and gently dissected by cutting their heads in a depression slide with a gonad dissection buffer (previously presented) to expose the gonads. The exposed gonads were then washed once in the dissection buffer and transferred to a dissection buffer containing 4 μM of Hoechst 33342 and 20 μM of NBD labeled MARCKS-ED peptide, 20 μM NBD-MARCKSmut1 peptide, or 10 nM Alexa Fluor 488-conjugated Annexin-V for 45 minutes. Gonads were washed one more time in the dissection buffer, placed on a 5% agarose pad, and visualized using a Nomarski microscope equipped with an epifluorescence detector.
FIGS. 6A-6C illustrate exemplary staining results using MARCKS derived peptides and Annexin V. PS is typically kept in the inner leaflet of plasma membranes in living cells and is exposed on the cell surface only under certain cellular events, i.e., when cells undergo apoptosis or lose the ability to maintain the PS asymmetry with a tat-1 gene mutation. FIG. 6A represents the staining results with labeled MARCKS-ED in wild type and mutants C. elegans. […] FIG. 6B represents the staining results with labeled MARCKSmut1 in wild type and mutants C. elegans. […] In FIGS. 6A-6B, nuclei were stained with Hoechst 33342. Annexin-V, a known PS-sensor, was also used to stain the gonads of tat-1 and ced-7 mutant C. elegans. […] Hoechst33342 (4 μM), FITC-AnnexinV (10 nM) and Nomarski images are shown. […] Scale bar=10 μm.

isolated microvesicles = assay: Fluorescence enhancement with isolated rat microvesicles; type: binding
Procedure: In another exemplary method, having established the simultaneous curvature- and PS-sensing by MARCKS-ED in synthetic liposomes, MARCKS-ED was tested on detection of highly curved, PS-enriched particles in a complex biological system. Microvesicles (ø=0.03-1 μm) are highly curved lipid vesicles that shed into body fluids (e.g., blood, urine, ascitic fluid). These vesicles are released by cancerous cells in which lipid asymmetry is de-regulated, contributing to externalization and enrichment of PS on their outer leaflet. The microvesicle detecting ability of MARCKS-ED was investigated using plasma samples from a stressed rat model. […]
Microvesicles in these samples were characterized by TEM imaging, and ELISA of detection of the signature CD63 protein and the membrane transport protein Rab5b exposed on the surface. Particles expressing both proteins were captured by antibodies and quantified in a colorimetric endpoint assay.
These isolated microvesicles were measured by nanoparticle tracking analysis (NTA) to confirm their average size (ø=56 nm). Tracking analyses were performed using the NanoSight LM10-HS instrument (Amesbury, UK) equipped with a 532 nm laser and observed at scatter and fluorescence modes (filter=550 nm). […]
Monitored at λex=295 nm, Annexin-V (0.32 μM) was treated with CaCl2 (3 mM) in TES buffer and with 500 μM lipid vesicles of varying PS content. […]

microvesicles in plasma = assay: Nanoparticle tracking analysis of microvesicles in plasma from stressed rats treated with MARCKS peptides; type: binding, rat; conditions: Alexa Fluor 546 labeled peptides 55 nM
Procedure: These isolated microvesicles were measured by nanoparticle tracking analysis (NTA) to confirm their average size (ø=56 nm). Tracking analyses were performed using the NanoSight LM10-HS instrument (Amesbury, UK) equipped with a 532 nm laser and observed at scatter and fluorescence modes (filter=550 nm). The instrument was calibrated using commercially available 50 nm polystyrene beads. […] Alexa Fluor 546™-labeled mouse anti-rat CD63 and unconjugated Alexa Fluor 546™ were used as positive and negative controls, respectively. The profiles of MARCKS-ED-Alexa Fluor 546™ and Alexa Fluor 546™ in the absence of microvesicles were also investigated to confirm that these show negligible scatter and fluorescence background signals under identical NTA conditions.
FIG. 5A represents fluorescence enhancement assay with MARCKS-ED incubated with the isolated microvesicles. Peptide MARCKS-ED ([…]) not treated with microvesicles was used as a negative control. Annexin-V (a positive control) and MARCKS-ED were incubated with the isolated rat microvesicles. Fluorescence was normalized to the negative control. […] The diameter size and particle count of the isolated microvesicles detected by MARCKS-ED was further quantified. Nanoparticle tracking analysis (NTA) uses a laser for scatter and fluorescence modes to track small particles by Brownian motion, providing a robust method for detecting nano-sized microvesicles. Under the fluorescence mode with the emission filter set for the Alexa Fluor 546™, the particles that bound to MARCKS-ED, MARCKSmut1, and MARCKSmut2peptides were observed.
FIG. 5B illustrates the results of NTA of microvesicles treated with MARCKS derived peptides. […] The untreated plasma samples were detected using the scatter mode and treated samples were monitored by tracking the fluorescence of Alexa Fluor 546™ conjugated to the MARCKS-ED MARCKSmut1 and MARCKSmut2 peptides. […] Furthermore, blank samples were performed to rule out possible artifacts of background fluorescence from the peptides, the vesicles and the unconjugated dye.

## KKKKKRFSFKKSFKLSGFSFKKNKK [MARCKS-ED]
[1]
  staining of PS-exposed membranes: recognizes PS exposed on the surface of all germ cells in the tat-1 (tm3117) mutant and un-engulfed apoptotic germ cell corpses in the ced-7(n2094) mutant
Isolated microvesicles
  binding to isolated microvesicles (fluorescence enhancement): demonstrated to bind to these biological particles
Microvesicles in plasma
  binding to microvesicles in whole plasma (NTA fluorescence mode): selectively bind to small-sized microvesicles in whole plasma
